According to patent publication US20070021509A1, “Phosphate transport inhibitors” (priority 2001, published 2007):

test system: phosphate uptake by rabbit intestinal Brush Border Membrane Vesicles (BBMV); assay: 33PO4 uptake in rabbit intestinal BBMV (HTS), phosphate transporter inhibition in vitro; assay type: biochemical; details: Table 1, phosphate uptake, read-out: IC50
Method in brief: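 BBMV from duodenal mucosa of male New Zealand White rabbits, diluted to about 0.5-2.0 mg/mL protein. Uptake buffers carried 33PO4 at 200,000 CPM/19 μL. Controls: Na uptake buffer (max), plus 100 μM KH2PO4 pH 7.4 (mid), K uptake buffer (min).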

IC50 [µM] | SMILES
101 to 500 | Cc1ccc(S(=O)(=O)Nc2ccc(Br)cc2C(=O)O)cc1[N+](=O)[O-] [Compound 20]
101 to 500 | O=C(O)c1cc(Br)ccc1NS(=O)(=O)c1ccc(Cl)c([N+](=O)[O-])c1 [Compound 12]
101 to 500 | O=C(O)c1cc(Br)ccc1NS(=O)(=O)c1ccc(OC(F)(F)F)cc1 [Compound 14]
101 to 500 | O=C(O)c1cc(Br)ccc1NS(=O)(=O)c1cccc2ccccc12 [Compound 19]
51 to 100 | Cc1ccc(S(=O)(=O)Nc2ccc(Br)cc2C(=O)O)cc1[N+](=O)[O-] [Compound 9]
101 to 500 | O=C(O)c1cc(Br)ccc1NS(=O)(=O)c1cccc(Cl)c1 [Compound 10]

same assay, conditions: Table 2, phosphate uptake, read-out: IC50

IC50 [µM] | SMILES
501 to 1000 | Cc1c(Cl)cccc1NC(=O)c1cc(Br)ccc1NS(=O)(=O)c1ccc(OC(F)(F)F)cc1 [Compound 83]
101 to 500 | O=C(Nc1cccc(Br)c1)c1cc(Br)ccc1NS(=O)(=O)c1ccc(OC(F)(F)F)cc1 [Compound 72]
101 to 500 | O=C(Nc1ccc(Cl)cc1Cl)c1cc(Br)ccc1NS(=O)(=O)c1ccc(OC(F)(F)F)cc1 [Compound 79]
< 50 | O=C(Nc1cc(Cl)ccc1Cl)c1cc(Br)ccc1NS(=O)(=O)c1ccc(Cl)c([N+](=O)[O-])c1 [Compound 111]
51 to 100 | O=C(NCc1cc(F)ccc1F)c1cc(Br)ccc1NS(=O)(=O)c1ccc(OC(F)(F)F)cc1 [Compound 66]
101 to 500 | O=C(Nc1ccccc1-n1cccc1)c1cc(Br)ccc1NS(=O)(=O)c1ccc(OC(F)(F)F)cc1 [Compound 68]
> 1500 | O=C(Nc1cccc(Cl)c1)c1cc(Br)ccc1NS(=O)(=O)c1ccc(Cl)cc1 [Compound 95]
101 to 500 | COc1ccccc1NC(=O)c1cc(Br)ccc1NS(=O)(=O)c1ccc(Cl)c([N+](=O)[O-])c1 [Compound 117]
> 1500 | O=C(Nc1cccc(Br)c1)c1cc(Br)ccc1NS(=O)(=O)c1ccc(Cl)cc1 [Compound 91]
< 50 | O=C(Nc1ccc(Cl)c(Cl)c1)c1cc(Br)ccc1NS(=O)(=O)c1ccc(Cl)c([N+](=O)[O-])c1 [Compound 110]
51 to 100 | COc1ccc(S(=O)(=O)Nc2ccc(Br)cc2C(=O)Nc2cc(Cl)ccc2Cl)cc1[N+](=O)[O-] [Compound 98]

same assay, conditions: Table 3, 100 μM compound

SMILES | % Inhib. At 100 μM [%]
O=[N+]([O-])c1cc(Br)ccc1NS(=O)(=O)c1ccc(OC(F)(F)F)cc1 [Compound 147] | 61
Cc1ccc(NS(=O)(=O)c2ccc(OC(F)(F)F)cc2)cc1 [Compound 142] | 67
CSc1ccc(N(c2ccc(OC(F)(F)F)cc2)S(=O)(=O)c2ccc(OC(F)(F)F)cc2)cc1 [Compound 167] | 21
O=S(=O)(Nc1ccc(F)cc1F)c1cc(C(F)(F)F)cc(C(F)(F)F)c1 [Compound 162] | 29

same assay, conditions: Table 4, phosphate uptake, read-out: IC50

IC50 [µM] | SMILES
501 to 1000 | O=C(Nc1ccc(Br)cc1P(=O)(O)O)Nc1cccc(C(F)(F)F)c1Cl [Compound 198]
101 to 500 | O=C(Nc1ccc(F)c([N+](=O)[O-])c1)Nc1ccc(Br)cc1P(=O)(O)O [Compound 194]
501 to 1000 | O=C(Nc1ccc(C(F)(F)F)cc1)Nc1ccc(Br)cc1P(=O)(O)O [Compound 202]
101 to 500 | O=C(Nc1cc(C(F)(F)F)ccc1F)Nc1ccc(Br)cc1P(=O)(O)O [Compound 189]

same assay, conditions: Table 5, 100 μM compound

SMILES | % Inhib. at 100 μM [%]
O=C(Nc1cccc(C(F)(F)F)c1)Nc1cccc(C(F)(F)F)c1 [Compound 214] | 100
O=C(NCc1ccc(Cl)c(Cl)c1)Nc1ccc(Br)cc1P(=O)([O-])[O-].[Na+].[Na+] [Compound 221] | 91

same assay, conditions: Table 6, 100 μM compound

SMILES | % Inhib. at 100 μM [%]
c1ccc(Oc2ccc(-c3cc(-c4ccco4)on3)cc2)cc1 [Compound 232] | 72

same assay, conditions: Table 7, phosphate uptake, read-out: IC50

IC50 [µM] | SMILES
101 to 500 | COc1ccc(-c2cc(-c3ccco3)n(C)n2)cc1 [Compound 240]
> 1500 | Cn1nc(-c2ccc(Oc3ccccc3)cc2)cc1-c1cccc(F)c1 [Compound 243]

same assay, conditions: Table 10, phosphate uptake, read-out: IC50

IC50 [µM] | SMILES
101 to 500 | O=C(Nc1ccc(Br)cc1C(=O)O)c1ccc(Cl)c([N+](=O)[O-])c1 [Compound 261]
101 to 500 | O=C(Nc1ccc(Br)cc1)c1cc(Br)cc(Br)c1OCCP(=O)(O)O [Compound 263]

SMILES | IC50 [µM]
CCOP(=O)(OCC)c1cc(Br)ccc1NC(=O)c1ccc(OC(F)(F)F)cc1 [Compound 272] | > 1500

same assay, conditions: Table 11, phosphate uptake, read-out: IC50

IC50 [µM] | SMILES
501 to 1000 | O=C(/C=C/c1ccco1)c1cccc(Oc2ccccc2)c1 [Compound 276]

same assay, conditions: Table 12, 100 μM compound

SMILES | % Inhib. at 100 μM [%]
O=S(=O)(Cc1ccc(C(F)(F)F)cc1)c1ccc(Cl)cc1 [Compound 291] | 0
O=S(=O)(Cc1ccc(Br)cc1F)c1ccc(Cl)cc1 [Compound 288] | 31

same assay, conditions: Table 13, phosphate uptake, read-out: IC50

IC50 [µM] | SMILES
> 1500 | O=S(=O)(O)c1cc(NS(=O)(=O)c2cccc3cccnc23)ccc1/C=C/c1ccc(NS(=O)(=O)c2cccc3cccnc23)cc1S(=O)(=O)O [Compound 311]
> 1500 | Nc1ccc(/C=C/c2ccc(N)cc2)cc1 [Compound 308]
51 to 100 | O=S(=O)(O)c1cc(NS(=O)(=O)c2ccc(-c3ccccc3)cc2)ccc1/C=C/c1ccc(NS(=O)(=O)c2ccc(-c3ccccc3)cc2)cc1S(=O)(=O)O [Compound 293]

test system: sodium-dependent phosphate uptake into isolated rabbit intestinal rings; assay: Ex vivo 33P uptake into isolated rabbit intestinal rings; assay type: cell-based; design: concentration or dose not given beside the values; details: Table 14, 15-minute incubation
Method: For the ex vivo assay, ^33P uptake into isolated rabbit intestinal rings was measured using a modification of the method described by Crane and Mandelstam [Robert K. Crane and Paul Mandelstam “The active transport of sugars by various preparations of hamster intestine” Biochim. Biophys. Acta 45: 460-476, 1960; the contents of which are incorporated herein by reference]. Male New Zealand rabbits 2-3 kg in weight were aeuthinized by an i.v. injection of Fatal Pluse®. A midline laparotomy was performed and the duodenum from the pyloric junction to the ligament of Trietz isolated and excised. Segments of bowel were everted, cut into 2-4 mm ring-like pieces and placed into a modified Hepes-Buffered Ringer's solution in which Na^+ had been iso-osmotically replaced with N-methyl-D-glucamine. To measure phosphate uptake, six rings were incubated in a 50 ml conical tube containing a 10 ml volume of Ringer's solution, with or without Na^+, bubbled with 100% O2 and maintained at 37° C. 0.5 uCi/ml ^33P was then incubated with the rings for a 15-minute period, the tissue harvested, rinsed, blotted dry and weighed. Tissues were then solublized by digesting them in a 5 ml volume of Solvable® tissue solubilizer overnight at 50° C. and ^33P levels determined by scintillation counting. Sodium-dependent uptake of ^33P was calculated by determining the difference in uptake between rings incubated in the presence and absence of Na^+ in the Hepes-Buffered Ringer's solution. Results are reported as the percentage inhibition of phosphate and glucose uptake, respectively.

SMILES | % Phosphate Transport Inhibition [%]
COc1ccccc1CNC(=O)c1cc(Br)ccc1NS(=O)(=O)c1ccc(C(F)(F)F)cc1[N+](=O)[O-] [Example 80, 5-Bromo-N-(2-methoxy-benzyl)-2-(4-trifluoromethyl-2-nitro-benzenesulfonylamino)-benzamide] | 43
O=C(Nc1ccc(Br)cc1)c1cccc(C(F)(F)F)c1 [Example 81, N-(4-Bromo-phenyl)-3-trifluoromethyl-benzamide] | 22
O=C(NCc1ccccc1OC(F)(F)F)c1cc(Br)ccc1NS(=O)(=O)c1ccc(Cl)cc1 [Example 72, 5-Bromo-2-(4-chloro-benzenesulfonylamino)-N-(2-trifluoromethoxy-benzyl)-benzamide] | 24

test system: glucose uptake into isolated rabbit intestinal rings; assay: Ex vivo glucose uptake into isolated rabbit intestinal rings; assay type: cell-based; design: concentration or dose not given beside the values; details: Table 14
Method: For the ex vivo assay, ^33P uptake into isolated rabbit intestinal rings was measured using a modification of the method described by Crane and Mandelstam [Robert K. Crane and Paul Mandelstam “The active transport of sugars by various preparations of hamster intestine” Biochim. Biophys. Acta 45: 460-476, 1960; the contents of which are incorporated herein by reference]. Male New Zealand rabbits 2-3 kg in weight were aeuthinized by an i.v. injection of Fatal Pluse®. A midline laparotomy was performed and the duodenum from the pyloric junction to the ligament of Trietz isolated and excised. Segments of bowel were everted, cut into 2-4 mm ring-like pieces and placed into a modified Hepes-Buffered Ringer's solution in which Na^+ had been iso-osmotically replaced with N-methyl-D-glucamine. […] […] Tissues were then solublized by digesting them in a 5 ml volume of Solvable® tissue solubilizer overnight at 50° C. and ^33P levels determined by scintillation counting. Sodium-dependent uptake of ^33P was calculated by determining the difference in uptake between rings incubated in the presence and absence of Na^+ in the Hepes-Buffered Ringer's solution. Results are reported as the percentage inhibition of phosphate and glucose uptake, respectively.

SMILES | % Glucose Transport Inhibition [%]
COc1ccccc1CNC(=O)c1cc(Br)ccc1NS(=O)(=O)c1ccc(C(F)(F)F)cc1[N+](=O)[O-] [Example 80, 5-Bromo-N-(2-methoxy-benzyl)-2-(4-trifluoromethyl-2-nitro-benzenesulfonylamino)-benzamide] | 39
O=C(Nc1ccc(Br)cc1)c1cccc(C(F)(F)F)c1 [Example 81, N-(4-Bromo-phenyl)-3-trifluoromethyl-benzamide] | 13
O=C(NCc1ccccc1OC(F)(F)F)c1cc(Br)ccc1NS(=O)(=O)c1ccc(Cl)cc1 [Example 72, 5-Bromo-2-(4-chloro-benzenesulfonylamino)-N-(2-trifluoromethoxy-benzyl)-benzamide] | 6
